Experimental data published in patent US8133909B2 (Hoffmann-La Roche Inc., priority 2008, dated 2012).

Target: T1, human orexin-2 (hOX2) receptors (Homo sapiens, UniProt O43614)
T1 construct: expressed in transfected cells
T1 sequence (O43614 1-444): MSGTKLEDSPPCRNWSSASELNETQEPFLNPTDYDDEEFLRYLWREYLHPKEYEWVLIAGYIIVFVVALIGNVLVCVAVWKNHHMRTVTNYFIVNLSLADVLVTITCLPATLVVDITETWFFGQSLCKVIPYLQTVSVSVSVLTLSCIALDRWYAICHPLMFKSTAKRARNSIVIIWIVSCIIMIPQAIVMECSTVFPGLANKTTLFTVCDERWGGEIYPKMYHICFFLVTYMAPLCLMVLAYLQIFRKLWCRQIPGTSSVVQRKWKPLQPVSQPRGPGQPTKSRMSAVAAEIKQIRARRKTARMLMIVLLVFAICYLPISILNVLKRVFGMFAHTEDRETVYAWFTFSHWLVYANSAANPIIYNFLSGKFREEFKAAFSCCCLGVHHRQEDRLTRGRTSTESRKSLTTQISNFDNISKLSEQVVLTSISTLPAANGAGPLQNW
Assay: Intracellular Ca2+ mobilization assay (FLIPR), antagonism of orexin-A
Format: cell-based
Conditions: CHO(dHFr-) cells stably expressing hOX2; orexin-A at EC80 as agonist; antagonist applied 25 min before; Kb=IC50/(1+[A]/EC50); read-out: Kb (μM) OX2R (human)

| Kb [µM] | Compound |
| --- | --- |
| 0.0785 | Cc1cc(N(CCc2ccc(C(F)(F)F)cc2)C(=O)C(O)c2ccccc2)n(C)n1 (racemic) [Example 42, (R,S)—N-(2,5-Dimethyl-2H-pyrazol-3-yl)-2-hydroxy-2-phenyl-N-[2-(4-trifluoromethyl-phenyl)-ethyl]-acetamide] |
| 0.0241 | Cc1ccc(N(CCc2ccc(C(F)(F)F)nc2)C(=O)[C@@H](O)c2ccccc2)cc1 [Example 15, (S)-2-Hydroxy-2-phenyl-N-p-tolyl-N-[2-(6-trifluoromethyl-pyridin-3-yl)-ethyl]-acetamide] |
